Experimental data as given in patent publication EP3156406A1, “CRYSTALLINE FORMS OF RIBOCICLIB FREE BASE” (ratiopharm GmbH, priority 2015, dated 2017).
Converted amounts (≈) assume the structure as drawn. One block for each compound: values may come before it.

Columns and labels:
Format in all cases: physicochemical
[1] = Long term stability of solid form at 40°C/75%r.h.
[2] = Solubility in aqueous solvents; details: for Solubility: 37°C
Description: Approx. 340 mg (exactly weighed) test substance was weighed into a glass vial, followed by addition of 2.5 ml solvent. A stirring bar was added, the vial was fixed in a block heater at 37°C and the suspension was stirred with approx. 250 rpm. After 15 min and 1 h, samples were withdrawn, filtered through a 0.2 µm disposable filter, 50 µl of the clear filtrate were diluted with 950 µl DMSO and 2 µl thereof were analyzed by HPLC/UV.

[3] = Dynamic vapor sorption - stability of solid form; details: 25°C, humidity cycles 0-95% RH
Description: Vapour sorption experiments were performed in the instrument SPSx-1µ (Projekt Messtechnik, Ulm, Germany) at temperature of 25°C and the humidity cycles as shown below. Humidity cycle conditions: [table]

- Long term stability at 40°C/75%r.h. (4 weeks) [1]: stable
- Long term stability at 40°C/75%r.h. (12 weeks) [1]: stable
- Solubility ([2]; 0.01 N HCl ∼pH2.2, 15 min, listed as RBC free base form 1): 3800 µg/mL (≈ 8.74 mM)
- Solubility ([2]; 0.01 N HCl ∼pH2.2, 1 h, listed as RBC free base form 1): 3400 µg/mL (≈ 7.82 mM)
- Solubility ([2]; 20mM NaAc pH4.5, 1 h, listed as RBC free base form 1): 14200 µg/mL (≈ 32.7 mM)
- solubility at 15 min ([2]; 20 mM sodium acetate buffer, 37 °C, pH 4.5, aqueous buffer, thermodynamic from solid, 20mM NaAc pH4.5, 15 min): 14200 µg/mL (≈ 32.7 mM)
- Solubility ([2]; 50mM KH2PO4 pH6.5 + 2%TPGS, 15 min, listed as RBC free base form 1): 3600 µg/mL
- Solubility ([2]; 50mM KH2PO4 pH6.5 + 2%TPGS, 1 h, listed as RBC free base form 1): 1500 µg/mL
- Solubility ([2]; 50mM KH2PO4 pH6.8, 15 min, listed as RBC free base form 1): 1500 µg/mL (≈ 3.45 mM)
- Solubility ([2]; 50mM KH2PO4 pH6.8, 1 h, listed as RBC free base form 1): 1600 µg/mL (≈ 3.68 mM)
- Stability of solid form (in DVS) [3]: stable
SMILES: CN(C)C(=O)c1cc2cnc(Nc3ccc(N4CCNCC4)cn3)nc2n1C1CCCC1 [Form 1, 7-cyclopentyl-N,N-dimethyl-2-((5-(piperazin-1-yl)pyridin-2-yl)amino)-7H-pyrrolo[2,3-d]pyrimidine-6-carboxamide]

- Stability of solid form (in DVS) [3]: Unstable at RT and ambient conditions
SMILES: CN(C)C(=O)c1cc2cnc(Nc3ccc(N4CCNCC4)cn3)nc2n1C1CCCC1 [Form 4, 7-cyclopentyl-N,N-dimethyl-2-((5-(piperazin-1-yl)pyridin-2-yl)amino)-7H-pyrrolo[2,3-d]pyrimidine-6-carboxamide, reference compound]

- Long term stability at 40°C/75%r.h. (4 weeks) [1]: stable
- Long term stability at 40°C/75%r.h. (12 weeks) [1]: stable
- Solubility ([2]; 0.01 N HCl ∼pH2.2, 15 min, listed as RBC free base form 6): 400 µg/mL (≈ 0.92 mM)
- Solubility ([2]; 0.01 N HCl ∼pH2.2, 1 h, listed as RBC free base form 6): 200 µg/mL (≈ 0.46 mM)
- Solubility ([2]; 20mM NaAc pH4.5, 15 min, listed as RBC free base form 6): 12200 µg/mL (≈ 28.1 mM)
- Solubility ([2]; 20mM NaAc pH4.5, 1 h, listed as RBC free base form 6): 9700 µg/mL (≈ 22.3 mM)
- Solubility ([2]; 50mM KH2PO4 pH6.5 + 2%TPGS, 15 min, listed as RBC free base form 6): 2800 µg/mL
- Solubility ([2]; 50mM KH2PO4 pH6.5 + 2%TPGS, 1 h, listed as RBC free base form 6): 2400 µg/mL
- Solubility ([2]; 50mM KH2PO4 pH6.8, 15 min, listed as RBC free base form 6): 1200 µg/mL (≈ 2.76 mM)
- Solubility ([2]; 50mM KH2PO4 pH6.8, 1 h, listed as RBC free base form 6): 500 µg/mL (≈ 1.15 mM)
- Stability of solid form (in DVS) [3]: stable
SMILES: CN(C)C(=O)c1cc2cnc(Nc3ccc(N4CCNCC4)cn3)nc2n1C1CCCC1 [Form 6, 7-cyclopentyl-N,N-dimethyl-2-((5-(piperazin-1-yl)pyridin-2-yl)amino)-7H-pyrrolo[2,3-d]pyrimidine-6-carboxamide]

- Long term stability at 40°C/75%r.h. (4 weeks) [1]: stable
- Long term stability at 40°C/75%r.h. (12 weeks) [1]: stable
- Solubility ([2]; 0.01 N HCl ∼pH2.2, 15 min, listed as RBC free base form 7): 3100 µg/mL (≈ 7.13 mM)
- Solubility ([2]; 0.01 N HCl ∼pH2.2, 1 h, listed as RBC free base form 7): 3000 µg/mL (≈ 6.9 mM)
- Solubility ([2]; 20mM NaAc pH4.5, 15 min, listed as RBC free base form 7): 11300 µg/mL (≈ 26 mM)
- solubility at 1 h ([2]; 20 mM sodium acetate buffer, 37 °C, pH 4.5, aqueous buffer, thermodynamic from solid, 20mM NaAc pH4.5, 1 h): 11500 µg/mL (≈ 26.5 mM)
- Solubility ([2]; 50mM KH2PO4 pH6.5 + 2%TPGS, 15 min, listed as RBC free base form 7): 800 µg/mL
- Solubility ([2]; 50mM KH2PO4 pH6.5 + 2%TPGS, 1 h, listed as RBC free base form 7): 800 µg/mL
- Solubility ([2]; 50mM KH2PO4 pH6.8, 15 min, listed as RBC free base form 7): 500 µg/mL (≈ 1.15 mM)
- Solubility ([2]; 50mM KH2PO4 pH6.8, 1 h, listed as RBC free base form 7): 1100 µg/mL (≈ 2.53 mM)
- Stability of solid form (in DVS) [3]: stable
SMILES: CN(C)C(=O)c1cc2cnc(Nc3ccc(N4CCNCC4)cn3)nc2n1C1CCCC1 [Form 7, 7-cyclopentyl-N,N-dimethyl-2-((5-(piperazin-1-yl)pyridin-2-yl)amino)-7H-pyrrolo[2,3-d]pyrimidine-6-carboxamide]

- Long term stability at 40°C/75%r.h. (4 weeks) [1]: stable
- Long term stability at 40°C/75%r.h. (12 weeks) [1]: stable
- Solubility ([2]; 0.01 N HCl ∼pH2.2, 15 min, listed as RBC free base form 8): 4000 µg/mL (≈ 9.2 mM)
- Solubility ([2]; 0.01 N HCl ∼pH2.2, 1 h, listed as RBC free base form 8): 1000 µg/mL (≈ 2.3 mM)
- Solubility ([2]; 50mM KH2PO4 pH6.5 + 2%TPGS, 15 min, listed as RBC free base form 8): 3900 µg/mL
- Solubility ([2]; 50mM KH2PO4 pH6.5 + 2%TPGS, 1 h, listed as RBC free base form 8): 900 µg/mL
SMILES: CN(C)C(=O)c1cc2cnc(Nc3ccc(N4CCNCC4)cn3)nc2n1C1CCCC1 [Form 8, 7-cyclopentyl-N,N-dimethyl-2-((5-(piperazin-1-yl)pyridin-2-yl)amino)-7H-pyrrolo[2,3-d]pyrimidine-6-carboxamide]
